Reference: PubChem BioAssay AID488803 (Sanford-Burnham Center for Chemical Genomics, 2010)
Active and inactive are the calls of the source.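 Rule for the calls: active = mean IC50 below 10 µM; inactive = the rest.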

Biological target: Apelin receptor (Homo sapiens) (UniProt P35414)
Test: apelin receptor inhibitor analogs – cell-based, luminescence, set 2, SAR follow-up (AID 488803)
Conditions: CHO-K1 APJ PathHunter beta-arrestin, antagonist

Apelin receptor (Homo sapiens), sequence (P35414 whole entry, looked up): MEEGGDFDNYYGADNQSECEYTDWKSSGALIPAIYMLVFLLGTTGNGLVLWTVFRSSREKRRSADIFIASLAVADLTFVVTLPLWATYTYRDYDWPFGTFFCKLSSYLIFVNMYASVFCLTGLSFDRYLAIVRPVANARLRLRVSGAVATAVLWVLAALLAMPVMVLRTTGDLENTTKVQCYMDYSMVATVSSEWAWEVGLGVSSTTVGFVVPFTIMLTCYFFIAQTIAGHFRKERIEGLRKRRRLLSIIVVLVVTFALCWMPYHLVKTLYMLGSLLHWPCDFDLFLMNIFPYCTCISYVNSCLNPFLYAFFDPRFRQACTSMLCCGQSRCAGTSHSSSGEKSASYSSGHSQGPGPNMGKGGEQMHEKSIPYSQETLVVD

Structure (SMILES)	IC50
Cc1ccccc1NCC(O)c1ccc(Cl)cc1 (stereo not drawn)	> 79 µM (inactive)
CC1(C)CC2(CC(c3ccc(F)cc3)c3ccc(O)cc3O2)NC(=S)N1 (stereo not drawn)	> 79 µM (inactive)
Cc1cc(C)nc(SCc2cc(=O)c(O)co2)n1	> 79 µM (inactive)
